Like-named read-outs stand apart in the source and are kept apart here. One block for each compound: values may come before it.
Assays:
Test in all cases: biochemical
Set-up in all cases: DiscoveRx KINOMEscan active site-directed competition binding; percent of control kinase bound to immobilised ligand
BRK = target: T1, BRK (Homo sapiens, UniProt Q13882)
T1 construct: gene PTK6

INSR = INSR (Homo sapiens, UniProt P06213)
PHKG1 = PHKG1 (Homo sapiens, UniProt Q16816)
ROCK1 = ROCK1 (Homo sapiens, UniProt Q13464)
Sequence of ROCK1 (Q13464 whole entry): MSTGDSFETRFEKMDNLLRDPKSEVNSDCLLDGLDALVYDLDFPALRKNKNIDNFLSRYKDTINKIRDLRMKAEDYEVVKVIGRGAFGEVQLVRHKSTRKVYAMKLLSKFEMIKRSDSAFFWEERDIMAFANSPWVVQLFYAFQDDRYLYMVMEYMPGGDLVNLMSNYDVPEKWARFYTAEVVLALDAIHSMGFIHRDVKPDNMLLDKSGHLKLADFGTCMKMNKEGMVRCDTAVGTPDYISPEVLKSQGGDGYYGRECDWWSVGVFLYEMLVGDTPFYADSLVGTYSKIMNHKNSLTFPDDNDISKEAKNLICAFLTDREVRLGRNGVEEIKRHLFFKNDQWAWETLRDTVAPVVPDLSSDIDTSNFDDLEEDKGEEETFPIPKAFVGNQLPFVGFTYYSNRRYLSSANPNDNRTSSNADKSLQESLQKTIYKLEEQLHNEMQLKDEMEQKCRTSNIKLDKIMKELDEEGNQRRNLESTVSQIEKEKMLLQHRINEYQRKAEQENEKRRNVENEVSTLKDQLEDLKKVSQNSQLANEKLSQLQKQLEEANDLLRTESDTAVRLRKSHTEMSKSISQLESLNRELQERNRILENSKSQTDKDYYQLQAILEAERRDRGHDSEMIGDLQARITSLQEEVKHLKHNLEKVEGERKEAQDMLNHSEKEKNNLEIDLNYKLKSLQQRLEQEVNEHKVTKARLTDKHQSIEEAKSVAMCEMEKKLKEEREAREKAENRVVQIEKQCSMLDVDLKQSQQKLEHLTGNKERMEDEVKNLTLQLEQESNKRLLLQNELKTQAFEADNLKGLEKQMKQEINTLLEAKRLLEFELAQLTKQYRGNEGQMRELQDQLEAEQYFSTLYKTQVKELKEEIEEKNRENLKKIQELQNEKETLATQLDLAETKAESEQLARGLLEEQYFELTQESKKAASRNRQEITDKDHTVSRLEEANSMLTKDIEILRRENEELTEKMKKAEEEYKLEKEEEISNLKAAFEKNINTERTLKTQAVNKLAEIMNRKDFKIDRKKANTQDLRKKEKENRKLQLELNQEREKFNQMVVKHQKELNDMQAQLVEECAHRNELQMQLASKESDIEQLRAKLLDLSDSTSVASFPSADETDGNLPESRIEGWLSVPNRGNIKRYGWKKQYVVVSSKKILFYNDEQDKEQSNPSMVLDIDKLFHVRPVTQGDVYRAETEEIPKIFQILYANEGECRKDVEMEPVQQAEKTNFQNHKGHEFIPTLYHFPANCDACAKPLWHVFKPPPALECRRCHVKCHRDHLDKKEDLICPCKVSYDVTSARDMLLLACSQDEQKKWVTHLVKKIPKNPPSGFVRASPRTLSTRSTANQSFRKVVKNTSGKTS

NEK10 = target: T2, NEK10 (Homo sapiens, UniProt Q6ZWH5)
T2 sequence (Q6ZWH5 1-1172): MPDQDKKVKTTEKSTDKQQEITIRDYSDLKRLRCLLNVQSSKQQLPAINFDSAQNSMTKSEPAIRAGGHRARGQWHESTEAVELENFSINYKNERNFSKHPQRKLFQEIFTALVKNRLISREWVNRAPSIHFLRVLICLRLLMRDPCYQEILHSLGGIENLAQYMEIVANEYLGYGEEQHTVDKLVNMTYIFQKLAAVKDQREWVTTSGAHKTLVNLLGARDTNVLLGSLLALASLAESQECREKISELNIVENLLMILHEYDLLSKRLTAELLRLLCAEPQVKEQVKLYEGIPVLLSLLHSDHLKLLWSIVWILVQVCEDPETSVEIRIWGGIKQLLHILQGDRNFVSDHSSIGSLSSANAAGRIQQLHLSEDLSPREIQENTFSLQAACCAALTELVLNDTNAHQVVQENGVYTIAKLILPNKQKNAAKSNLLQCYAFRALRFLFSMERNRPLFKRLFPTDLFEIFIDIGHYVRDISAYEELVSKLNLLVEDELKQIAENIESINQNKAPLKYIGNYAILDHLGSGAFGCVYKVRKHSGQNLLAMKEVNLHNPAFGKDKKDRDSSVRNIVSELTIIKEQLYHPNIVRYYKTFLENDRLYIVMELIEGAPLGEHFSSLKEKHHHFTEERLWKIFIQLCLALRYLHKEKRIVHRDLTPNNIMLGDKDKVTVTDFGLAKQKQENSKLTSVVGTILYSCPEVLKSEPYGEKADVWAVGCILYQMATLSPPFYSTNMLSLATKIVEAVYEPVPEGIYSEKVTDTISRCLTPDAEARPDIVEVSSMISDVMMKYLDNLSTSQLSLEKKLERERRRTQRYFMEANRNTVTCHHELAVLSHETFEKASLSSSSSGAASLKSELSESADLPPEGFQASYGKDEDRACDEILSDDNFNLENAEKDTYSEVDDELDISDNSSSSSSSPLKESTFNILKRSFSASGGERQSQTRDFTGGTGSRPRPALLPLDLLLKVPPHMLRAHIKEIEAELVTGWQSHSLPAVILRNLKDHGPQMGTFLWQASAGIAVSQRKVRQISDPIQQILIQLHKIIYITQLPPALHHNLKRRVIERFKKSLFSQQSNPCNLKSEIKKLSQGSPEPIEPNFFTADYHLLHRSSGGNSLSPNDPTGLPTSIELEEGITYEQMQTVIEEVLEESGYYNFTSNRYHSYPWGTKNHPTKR

CHEK1 = target: T3, CHEK1 (Homo sapiens, UniProt O14757)
T3 sequence (O14757 1-476): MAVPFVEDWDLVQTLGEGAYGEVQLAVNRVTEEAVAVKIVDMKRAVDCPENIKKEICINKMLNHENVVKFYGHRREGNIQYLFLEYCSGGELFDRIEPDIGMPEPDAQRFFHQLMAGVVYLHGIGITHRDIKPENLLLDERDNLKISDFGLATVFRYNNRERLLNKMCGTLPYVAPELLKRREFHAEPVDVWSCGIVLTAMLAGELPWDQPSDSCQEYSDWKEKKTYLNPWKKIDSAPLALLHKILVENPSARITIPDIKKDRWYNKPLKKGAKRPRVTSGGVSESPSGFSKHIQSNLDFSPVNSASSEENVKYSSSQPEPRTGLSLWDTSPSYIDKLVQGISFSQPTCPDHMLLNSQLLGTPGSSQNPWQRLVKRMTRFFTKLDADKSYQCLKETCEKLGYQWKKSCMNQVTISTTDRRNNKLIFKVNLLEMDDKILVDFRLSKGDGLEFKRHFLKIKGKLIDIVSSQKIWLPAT

PAK3 = PAK3 (Homo sapiens, UniProt O75914)
Sequence of PAK3 (O75914 whole entry): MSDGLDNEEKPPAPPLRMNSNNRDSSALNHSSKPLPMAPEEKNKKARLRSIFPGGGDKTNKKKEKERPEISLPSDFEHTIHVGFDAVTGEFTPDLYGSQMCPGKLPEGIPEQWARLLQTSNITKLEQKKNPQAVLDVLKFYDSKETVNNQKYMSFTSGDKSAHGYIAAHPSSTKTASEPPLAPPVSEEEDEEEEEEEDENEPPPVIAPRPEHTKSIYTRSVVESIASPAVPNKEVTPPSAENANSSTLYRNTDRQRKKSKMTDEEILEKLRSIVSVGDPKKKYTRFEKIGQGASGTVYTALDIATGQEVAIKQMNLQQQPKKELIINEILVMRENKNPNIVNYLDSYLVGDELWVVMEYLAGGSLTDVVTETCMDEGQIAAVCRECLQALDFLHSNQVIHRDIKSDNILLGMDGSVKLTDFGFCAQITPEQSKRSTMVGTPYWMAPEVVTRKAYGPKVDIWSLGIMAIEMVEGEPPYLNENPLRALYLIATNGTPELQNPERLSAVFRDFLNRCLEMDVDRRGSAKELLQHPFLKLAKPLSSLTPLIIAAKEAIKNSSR

CSF1R-autoinhibited = CSF1R-autoinhibited (Homo sapiens, UniProt P07333)
Sequence of CSF1R-autoinhibited (P07333 whole entry): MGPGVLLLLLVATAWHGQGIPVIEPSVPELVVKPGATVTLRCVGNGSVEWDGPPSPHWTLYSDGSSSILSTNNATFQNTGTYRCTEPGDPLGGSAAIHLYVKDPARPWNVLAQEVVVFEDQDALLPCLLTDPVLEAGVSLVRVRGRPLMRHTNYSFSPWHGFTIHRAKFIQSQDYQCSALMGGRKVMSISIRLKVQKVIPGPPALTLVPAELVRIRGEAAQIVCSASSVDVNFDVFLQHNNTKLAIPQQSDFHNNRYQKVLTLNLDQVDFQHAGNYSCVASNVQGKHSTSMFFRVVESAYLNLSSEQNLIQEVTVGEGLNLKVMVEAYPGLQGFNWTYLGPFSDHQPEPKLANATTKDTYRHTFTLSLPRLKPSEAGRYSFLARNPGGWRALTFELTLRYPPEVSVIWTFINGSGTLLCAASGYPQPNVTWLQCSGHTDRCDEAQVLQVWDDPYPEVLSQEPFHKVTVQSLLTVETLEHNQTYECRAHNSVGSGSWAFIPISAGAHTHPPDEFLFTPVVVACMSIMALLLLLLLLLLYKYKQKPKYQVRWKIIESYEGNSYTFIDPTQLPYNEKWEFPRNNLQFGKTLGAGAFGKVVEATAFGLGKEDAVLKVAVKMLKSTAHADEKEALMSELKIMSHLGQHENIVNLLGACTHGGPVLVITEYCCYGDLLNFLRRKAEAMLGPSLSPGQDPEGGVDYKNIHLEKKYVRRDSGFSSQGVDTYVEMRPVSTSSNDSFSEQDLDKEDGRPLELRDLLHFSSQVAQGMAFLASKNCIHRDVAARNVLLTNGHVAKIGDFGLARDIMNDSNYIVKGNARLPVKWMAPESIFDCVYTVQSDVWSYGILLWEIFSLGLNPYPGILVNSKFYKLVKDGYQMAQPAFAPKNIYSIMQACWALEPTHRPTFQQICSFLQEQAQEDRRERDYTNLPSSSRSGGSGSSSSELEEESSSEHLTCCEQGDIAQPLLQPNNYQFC

[1] = read-out: Niraparib (MK-4827) / %Ctrl @ 10000nM
[2] = read-out: Rucaparib / %Ctrl @ 10000nM, binding competition, % of control
[3] = read-out: Olaparib / %Ctrl @ 10000nM
[4] = read-out: Talazoparib (BMN 673) / %Ctrl @ 10000nM

Sequence of PHKG1 (Q16816 whole entry): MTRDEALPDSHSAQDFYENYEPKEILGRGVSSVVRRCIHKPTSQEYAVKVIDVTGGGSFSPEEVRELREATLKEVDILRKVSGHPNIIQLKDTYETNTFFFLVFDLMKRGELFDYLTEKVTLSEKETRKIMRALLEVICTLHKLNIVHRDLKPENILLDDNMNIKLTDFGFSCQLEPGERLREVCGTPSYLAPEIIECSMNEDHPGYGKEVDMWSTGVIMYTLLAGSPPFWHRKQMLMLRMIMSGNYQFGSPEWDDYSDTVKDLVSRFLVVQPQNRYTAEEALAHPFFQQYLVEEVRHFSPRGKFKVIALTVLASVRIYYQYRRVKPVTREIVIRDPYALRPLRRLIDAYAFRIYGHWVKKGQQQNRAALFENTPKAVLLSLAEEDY
Sequence of INSR (P06213 whole entry): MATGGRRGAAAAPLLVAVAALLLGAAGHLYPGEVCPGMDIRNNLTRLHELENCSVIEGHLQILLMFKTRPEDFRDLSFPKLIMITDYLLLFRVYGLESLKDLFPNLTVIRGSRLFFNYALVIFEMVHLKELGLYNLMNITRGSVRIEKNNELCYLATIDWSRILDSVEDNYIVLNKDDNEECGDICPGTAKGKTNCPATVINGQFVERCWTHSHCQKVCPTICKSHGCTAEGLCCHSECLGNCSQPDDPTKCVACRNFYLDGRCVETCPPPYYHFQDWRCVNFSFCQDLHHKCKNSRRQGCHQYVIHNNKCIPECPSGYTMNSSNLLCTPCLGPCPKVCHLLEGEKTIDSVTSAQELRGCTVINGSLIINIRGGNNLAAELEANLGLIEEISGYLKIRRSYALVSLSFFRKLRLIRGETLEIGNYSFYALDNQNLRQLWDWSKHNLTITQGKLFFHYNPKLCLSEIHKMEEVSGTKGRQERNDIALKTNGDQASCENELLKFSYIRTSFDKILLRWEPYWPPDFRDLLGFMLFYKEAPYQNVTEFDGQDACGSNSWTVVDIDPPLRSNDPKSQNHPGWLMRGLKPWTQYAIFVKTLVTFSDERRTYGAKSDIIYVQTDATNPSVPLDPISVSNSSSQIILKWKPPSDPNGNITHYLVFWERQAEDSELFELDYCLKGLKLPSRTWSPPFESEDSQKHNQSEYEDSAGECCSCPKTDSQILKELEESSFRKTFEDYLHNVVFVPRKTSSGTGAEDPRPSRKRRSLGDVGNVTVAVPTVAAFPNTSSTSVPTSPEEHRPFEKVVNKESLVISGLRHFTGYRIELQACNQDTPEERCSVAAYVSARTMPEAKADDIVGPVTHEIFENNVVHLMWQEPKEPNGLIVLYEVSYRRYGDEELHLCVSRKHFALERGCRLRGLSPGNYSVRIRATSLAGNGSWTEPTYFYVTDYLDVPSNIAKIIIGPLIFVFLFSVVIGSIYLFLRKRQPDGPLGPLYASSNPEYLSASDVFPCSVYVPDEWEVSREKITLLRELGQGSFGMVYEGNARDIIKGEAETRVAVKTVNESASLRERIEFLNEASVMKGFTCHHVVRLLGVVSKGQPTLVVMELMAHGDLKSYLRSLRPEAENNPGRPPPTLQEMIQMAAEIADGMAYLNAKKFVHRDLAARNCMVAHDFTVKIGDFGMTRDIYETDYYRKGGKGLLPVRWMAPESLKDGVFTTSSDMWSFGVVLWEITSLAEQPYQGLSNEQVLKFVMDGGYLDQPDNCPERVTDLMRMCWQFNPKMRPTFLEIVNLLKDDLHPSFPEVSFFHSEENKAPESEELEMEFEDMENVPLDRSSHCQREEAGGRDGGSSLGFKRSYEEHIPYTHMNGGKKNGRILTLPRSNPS
T1 sequence (Q13882 whole entry): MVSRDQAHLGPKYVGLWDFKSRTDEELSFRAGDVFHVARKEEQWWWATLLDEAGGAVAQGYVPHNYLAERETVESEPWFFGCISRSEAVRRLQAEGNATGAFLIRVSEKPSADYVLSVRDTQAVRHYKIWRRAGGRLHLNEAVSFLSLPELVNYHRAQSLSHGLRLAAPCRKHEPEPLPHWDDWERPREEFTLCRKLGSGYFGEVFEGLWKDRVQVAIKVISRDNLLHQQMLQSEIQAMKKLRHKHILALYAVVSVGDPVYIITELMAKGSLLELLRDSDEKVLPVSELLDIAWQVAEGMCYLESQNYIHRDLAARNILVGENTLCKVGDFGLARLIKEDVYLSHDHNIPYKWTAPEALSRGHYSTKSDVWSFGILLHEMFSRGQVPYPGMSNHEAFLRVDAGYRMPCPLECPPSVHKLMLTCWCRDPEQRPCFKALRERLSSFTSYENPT

Structure (SMILES): NC(=O)c1cccc2cn(-c3ccc([C@@H]4CCCNC4)cc3)nc12 [Niraparib]
- percent of control binding at 10 µM (BRK; [1]): 91%
- percent of control binding at 10 µM (INSR; [1]): 86%
- percent of control binding at 10 µM (PHKG1; [1]): 100%
- percent of control binding at 10 µM (ROCK1; [1]): 61%
- percent of control binding at 10 µM (NEK10; [1]): 68%
- percent of control binding at 10 µM (CHEK1; [1]): 72%
- percent of control binding at 10 µM (PAK3; [1]): 67%
- percent of control binding at 10 µM (CSF1R-autoinhibited; [1]): 81%

- percent of control binding at 10 µM (BRK; [2]): 99%
- percent of control binding at 10 µM (INSR; [2]): 86%
- percent of control binding at 10 µM (PHKG1; [2]): 87%
- percent of control binding at 10 µM (ROCK1; [2]): 85%
- percent of control binding at 10 µM (NEK10; [2]): 14%
- percent of control binding at 10 µM (CHEK1; [2]): 100%
- percent of control binding at 10 µM (PAK3; [2]): 95%
- percent of control binding at 10 µM (CSF1R-autoinhibited; [2]): 99%
Structure (SMILES): CNCc1ccc(-c2[nH]c3cc(F)cc4c3c2CCNC4=O)cc1 [Rucaparib]

- percent of control binding at 10 µM (BRK; [3]): 88%
- percent of control binding at 10 µM (INSR; [3]): 85%
- percent of control binding at 10 µM (PHKG1; [3]): 100%
- percent of control binding at 10 µM (ROCK1; [3]): 97%
- percent of control binding at 10 µM (NEK10; [3]): 78%
- percent of control binding at 10 µM (CHEK1; [3]): 79%
- percent of control binding at 10 µM (PAK3; [3]): 96%
- percent of control binding at 10 µM (CSF1R-autoinhibited; [3]): 95%
Structure (SMILES): O=C(c1cc(Cc2n[nH]c(=O)c3ccccc23)ccc1F)N1CCN(C(=O)C2CC2)CC1 [Olaparib]

- percent of control binding at 10 µM (BRK; [4]): 100%
- percent of control binding at 10 µM (INSR; [4]): 62%
- percent of control binding at 10 µM (PHKG1; [4]): 90%
- percent of control binding at 10 µM (ROCK1; [4]): 100%
- percent of control binding at 10 µM (NEK10; [4]): 100%
- percent of control binding at 10 µM (CHEK1; [4]): 86%
- percent of control binding at 10 µM (PAK3; [4]): 100%
- percent of control binding at 10 µM (CSF1R-autoinhibited; [4]): 100%
Structure (SMILES): Cn1ncnc1[C@H]1c2n[nH]c(=O)c3cc(F)cc(c23)N[C@@H]1c1ccc(F)cc1 [Talazoparib]
